# Results taken from US5663201A, “Desferrioxamine-B salts” (CIBA-GEIGY Corporation, priority 1992, dated 1997).
# Where a name gives a salt, the structure may show the parent alone. Read-outs that look alike come from different tables or passages of the source.
# How the values were obtained:
# [1] = intrinsic dissolution of tablets, Langenbucher flow-through apparatus; format: physicochemical; conditions: water, 25° C., listed as decanesulphonate
# Protocol: Tablets are prepared from the salts of Examples 1 and 4 by compressing a mixture of 99 parts of the salt and 1 part of magnesium stearate in a 13mm die for 2 minutes under a pressure of 4×10^5 kPa. The intrinsic dissolution rates of the tablets are determined using a Langenbucher flow-through apparatus, with water at 25° C. as the dissolution medium. The amount of desferrioxamine-B dissolved in the medium is measured at intervals using a spectrophotometric assay at 215 nm.
# [2] = format: physicochemical; conditions: n-octanol/phosphate buffer, pH 7.4
# Protocol: (§1) The partition coefficients of the salts prepared in Examples 1 to 5 between n-octanol and water are determined by the `shake-flask` method of Leo et at, Chem. Rev., 71(6), 525 (1971).
# (§2) The n-octanol and aqueous phases are mutually saturated prior to conducting the experiment. The desferrioxamine-B sulphonic acid addition salt is dissolved in the aqueous phase at a concentration of 0.005 mol/l and the partition experiment is performed by shaking the vessel containing the two phases until an equilibrium has been achieved. […] After equilibrium has been achieved, the sample is centrifuged to enable phase separation. Both organic and aqueous phases are analysed for desferrioxamine-B content via extraction of an appropriate aliquot, quenching with an aqueous (for assay of the aqueous phase) or methanolic (for assay of the n-octanol phase) solution of FeCl3, and measurement of the absorption of the characteristic ferrioxamine-B chelate at ca. 450 nm. Respective calibration plots (absorbance vs. concentration of desferrioxamine-B sulphonic acid salt) for the assay of both aqueous and organic phases show a linear response over the concentration range studied. The results obtained are as follows:
# The partition coefficients of the salts prepared in Examples 1 to 5 between n-octanol and an aqueous phosphate buffer at pH7.4 having an ionic strength of 0.31 mol/l are determined using the procedure of Examples 6-10. The results obtained are as follows:
# The use of n-octanol/aqueous media partition coefficients as a model for the lipophilicity of drugs is well established (see the abovementioned Leo et al reference). The aqueous phase in Examples 11 to 15 simulates physiological conditions.
# [3] = test system: Daudi cell line (B-cell lymphoma); experiment: iron-chelation bioassay: growth inhibiting effect on cells through iron removal, [3H] Thymidine uptake; format: cell-based; conditions: 72 hours, Control (0 μM): Ex 18 22297, Ex 19 23897, listed as decanesulphonate
# Protocol: The iron-chelating properties of salts of the invention in a biological system are determined by means of a bioassay in which the growth inhibiting effect of the salts on cells through iron removal is measured by the uptake of radioactively labelled thymidine into the cells. The bioassay is carried out using a Daudi cell line (B-cell lymphoma), a Roswell Park Memorial Institute (RPMI) 1640 medium containing 1 µM ferric citrate and supplements as low iron washing medium and RPM11640 together with 5% by weight of foetal calf serum as passaging medium.
# The cells are fed 24 hours before use. They are washed twice in the low iron washing medium to remove any excess iron and diluted with this medium to a concentration of 0.2×10^6 cells/0.180 ml. To 0.180 ml aliquots are added 0.02 ml of solutions of the desferrioxamine-B salts under test in phosphate-buffered saline (PBS) to give concentrations ranging from a Control containing no salt to a […] solution. The cells are then incubated at 37° C. in an atmosphere containing 5% by volume of carbon dioxide for 72 hours, being pulsed for the last 8 hours of that time with labelled [^3 H] Thymidine at 5 micro Ci/ml. The resulting cells are harvested and their radioactive disintegrations are counted for 10 minutes. The results are shown in the table below as the average of 4 separate experiments (except the Control result in Example 18 which is the average of 3 separate experiments).
# [4] = format: physicochemical; conditions: n-octanol/water, 5000 µM
# Protocol: as §1
# as §2, with “follows: […]” for “follows:”
smiles,measurement,setting,value
"CC(=O)N(O)CCCCCNC(=O)CCC(=O)N(O)CCCCCNC(=O)CCC(=O)N(O)CCCCCN [Example 1, decane-1-sulphonate/salt of desferrioxamine-B]",% Desferrioxaine-B salt dissolved,[1]; 1 min,1.01%
same,% Desferrioxaine-B salt dissolved,[1]; 2 min,1.65%
same,% Desferrioxaine-B salt dissolved,[1]; 5 min,2.90%
same,% Desferrioxaine-B salt dissolved,[1]; 10 min,4.67%
same,% Desferrioxaine-B salt dissolved,[1]; 15 min,6.17%
same,% Desferrioxaine-B salt dissolved,[1]; 20 min,7.50%
same,% Desferrioxaine-B salt dissolved,[1]; 30 min,9.97%
same,% Desferrioxaine-B salt dissolved,[1]; 50 min,14.21%
same,% Desferrioxaine-B salt dissolved,[1]; 75 min,18.80%
same,% Desferrioxaine-B salt dissolved,[1]; 100 min,22.92%
same,% Desferrioxaine-B salt dissolved,[1]; 125 min,26.62%
same,% Desferrioxaine-B salt dissolved,[1]; 150 min,30.13%
same,% Desferrioxaine-B salt dissolved,[1]; 175 min,33.49%
same,% Desferrioxaine-B salt dissolved,[1]; 200 min,36.85%
same,% Desferrioxaine-B salt dissolved,[1]; 225 min,39.97%
same,% Desferrioxaine-B salt dissolved,[1]; 250 min,42.94%
same,% Desferrioxaine-B salt dissolved,[1]; 275 min,45.87%
same,% Desferrioxaine-B salt dissolved,[1]; 300 min,48.81%
same,Partition Coefficient,[2],0.060
same,Disintegrations Per Minute ([3H] Thymidine uptake),[3]; 0.5 μM salt,23603 Disintegrations Per Minute
same,Disintegrations Per Minute ([3H] Thymidine uptake),[3]; 1 μM salt,14161 Disintegrations Per Minute
same,Disintegrations Per Minute ([3H] Thymidine uptake),[3]; 2 μM salt,6847 Disintegrations Per Minute
same,Disintegrations Per Minute ([3H] Thymidine uptake),[3]; 3 μM salt,6599 Disintegrations Per Minute
same,Disintegrations Per Minute ([3H] Thymidine uptake),[3]; 4 μM salt,5445 Disintegrations Per Minute
same,Disintegrations Per Minute ([3H] Thymidine uptake),[3]; 5 μM salt,5139 Disintegrations Per Minute
same,Disintegrations Per Minute ([3H] Thymidine uptake),[3]; 6 μM salt,4382 Disintegrations Per Minute
same,Disintegrations Per Minute ([3H] Thymidine uptake),[3]; 7.5 μM salt,3262 Disintegrations Per Minute
same,Disintegrations Per Minute ([3H] Thymidine uptake),[3]; 10 μM salt,2172 Disintegrations Per Minute
same,Disintegrations Per Minute ([3H] Thymidine uptake),[3]; 15 μM salt,1101 Disintegrations Per Minute
same,Disintegrations Per Minute ([3H] Thymidine uptake),[3]; 20 μM salt,494 Disintegrations Per Minute
same,Partition Coefficient,[4],0.366
"CC(=O)N(O)CCCCCNC(=O)CCC(=O)N(O)CCCCCNC(=O)CCC(=O)N(O)CCCCCN [Example 2, butane-1-sulphonate salt of desferrioxamine-B]",Partition Coefficient,[2],0.006
same,Partition Coefficient,[4],0.008
"CC(=O)N(O)CCCCCNC(=O)CCC(=O)N(O)CCCCCNC(=O)CCC(=O)N(O)CCCCCN [Example 3, hexane-1-sulphonate salt of desferrioxamine-B]",Partition Coefficient,[2],0.010
same,Partition Coefficient,[4],0.020
"CC(=O)N(O)CCCCCNC(=O)CCC(=O)N(O)CCCCCNC(=O)CCC(=O)N(O)CCCCCN [Example 5, dodecane-1-sulphonate salt of desferrioxamine-B]",Partition Coefficient,[2],0.028
same,Partition Coefficient,[4],0.450
